In brackets after ≈: the same amount, converted by molar mass. Activity calls are given as the source filed them. The rule behind the calls is not given here.
What was measured:
Staphylococcus aureus [1] = assay: Antibacterial activity against erythromycin susceptible Staphylococcus aureus ATCC25923 by broth microdilution assay; type: functional
Staphylococcus aureus [2] = assay: Antibacterial activity against penicillin-resistant Staphylococcus aureus ATCC31007 by broth microdilution assay; type: functional
Staphylococcus aureus [3] = assay: Antibacterial activity against penicillin-resistant Staphylococcus aureus ATCC43300 by broth microdilution assay; type: functional
Bacillus subtilis = assay: Antibacterial activity against penicillin-susceptible Bacillus subtilis ATCC9372 by broth microdilution assay; type: functional
Enterococcus faecalis = assay: Antibacterial activity against vancomycin susceptible Enterococcus faecalis ATCC29212 by broth microdilution assay; type: functional
[4] = test system: Staphylococcus epidermidis; assay: Antibacterial activity against erythromycin-susceptible Staphylococcus epidermidis ATCC12228 by broth microdilution assay; type: functional
Klebsiella pneumoniae = assay: Antibacterial activity against Klebsiella pneumoniae ATCC10031 by broth microdilution assay; type: functional
Acinetobacter baumannii = assay: Antibacterial activity against Acinetobacter baumannii ATCC19606 by broth microdilution assay; type: functional
Escherichia coli = assay: Antibacterial activity against penicillin-susceptible Escherichia coli ATCC25922 by broth microdilution method; type: functional
Pseudomonas aeruginosa = assay: Antibacterial activity against penicillin-susceptible Pseudomonas aeruginosa ATCC27853 by broth microdilution method; type: functional
[5] = Hemolytic activity in red blood cells (unknown origin); type: toxicity, cell-based, Erythrocyte
[6] = Selectivity index, ratio of HC50 for hemolytic activity in red blood cells (unknown origin) to MIC for antibacterial activity against penicillin-resistant Staphylococcus aureus ATCC43300; type: toxicity, cell-based, RBC; settings: read-out: Selectivity Index
[7] = Selectivity index, ratio of HC50 for hemolytic activity in red blood cells (unknown origin) to MIC for antibacterial activity against penicillin-susceptible Escherichia coli ATCC25922; type: toxicity, cell-based, RBC; settings: read-out: Selectivity Index
Staphylococcus aureus [8] = assay: Antibacterial activity against Staphylococcus aureus ATCC43300 infected in sepsis mouse model assessed as reduction in liver damage at 5 mg/kg pre-infected with bacteria for 1 hrs followed by compound administration at 12 hrs interval for 2 days by H and E staining based analysis; type: functional, organism-based; settings: time 2.0 day
Staphylococcus aureus [9] = assay: Antibacterial activity against Staphylococcus aureus ATCC43300 infected in sepsis mouse model assessed as reduction in spleen damage at 5 mg/kg pre-infected with bacteria for 1 hrs followed by compound administration at 12 hrs interval for 2 days by H and E staining based analysis; type: functional, organism-based; settings: time 2.0 day
Staphylococcus aureus [10] = assay: Antibacterial activity against Staphylococcus aureus ATCC43300 infected in sepsis mouse model assessed as reduction in kidney damage at 5 mg/kg pre-infected with bacteria for 1 hrs followed by compound administration at 12 hrs interval for 2 days by H and E staining based analysis; type: functional, organism-based; settings: time 2.0 day
Staphylococcus aureus [11] = assay: Antibacterial activity against Staphylococcus aureus ATCC43300 infected in sepsis mouse model assessed as reduction in liver inflammation at 5 mg/kg pre-infected with bacteria for 1 hrs followed by compound administration at 12 hrs interval for 2 days by H and E staining based analysis; type: functional, organism-based; settings: time 2.0 day
Staphylococcus aureus [12] = assay: Antibacterial activity against Staphylococcus aureus ATCC43300 infected in sepsis mouse model assessed as reduction in spleen inflammation at 5 mg/kg pre-infected with bacteria for 1 hrs followed by compound administration at 12 hrs interval for 2 days by H and E staining based analysis; type: functional, organism-based; settings: time 2.0 day
Staphylococcus aureus [13] = assay: Antibacterial activity against Staphylococcus aureus ATCC43300 infected in sepsis mouse model assessed as reduction in kidney inflammation at 5 mg/kg pre-infected with bacteria for 1 hrs followed by compound administration at 12 hrs interval for 2 days by H and E staining based analysis; type: functional, organism-based; settings: time 2.0 day
Staphylococcus aureus [14] = assay: Drug resistance, ratio of MIC for Staphylococcus aureus ATCC43300 measured after 17 passages to MIC for Staphylococcus aureus ATCC43300 measured after first exposure; type: functional

SMILES	MIC (Staphylococcus aureus [1]) [µg/mL]	MIC (Staphylococcus aureus [2]) [µg/mL]	MIC (Staphylococcus aureus [3]) [µg/mL]	MIC (Bacillus subtilis) [µg/mL]	MIC (Enterococcus faecalis) [µg/mL]	MIC [4] [µg/mL]	MIC (Klebsiella pneumoniae) [µg/mL]	MIC (Acinetobacter baumannii) [µg/mL]	MIC (Escherichia coli) [µg/mL]	MIC (Pseudomonas aeruginosa) [µg/mL]	HC50 [5] [µg/mL]	selectivity ratio [6]	selectivity ratio [7]	Activity (Staphylococcus aureus [8])	Activity (Staphylococcus aureus [9])	Activity (Staphylococcus aureus [10])	Activity (Staphylococcus aureus [11])	Activity (Staphylococcus aureus [12])	Activity (Staphylococcus aureus [13])	Ratio (Staphylococcus aureus [14])
CCCCCC[N+](C)(C)CCCOc1ccc(/C=C/C(=O)c2ccc(OCCC[N+](C)(C)CCCCCC)cc2)cc1.[Br-].[Br-]	1	1	1	0.5	1	0.5	4	16	4	32	1130	1130	283							
CN[C@H](CC(C)C)C(=O)N[C@H]1C(=O)N[C@@H](CC(N)=O)C(=O)N[C@H]2C(=O)N[C@H]3C(=O)N[C@H](C(=O)N[C@H](C(=O)O)c4cc(O)cc(O)c4-c4cc3ccc4O)[C@H](O)c3ccc(c(Cl)c3)Oc3cc2cc(c3O[C@@H]2O[C@H](CO)[C@@H](O)[C@H](O)[C@H]2O[C@H]2C[C@](C)(N)[C@H](O)[C@H](C)O2)Oc2ccc(cc2Cl)[C@H]1O [VANCOMYCIN]				0.5 (≈ 0.345 µM)	2 (≈ 1.38 µM)		128 (≈ 88.3 µM)	16 (≈ 11 µM)	128 (≈ 88.3 µM)	> 128				Active	Active	Active	Active	Active	Active	
CCn1cc(C(=O)O)c(=O)c2cc(F)c(N3CCNCC3)cc21 [NORFLOXACIN]																				256
CCCCCCCCCC[N+](C)(C)CCCCCOc1ccc(C(=O)/C=C/c2ccccc2)cc1.[Br-]	4	4	4	4	4	8	16	16	64	> 128	42	10.5								
CCCCCCCCCCCC(=O)Nc1cc[n+](CCCOc2ccc(C(=O)/C=C/c3ccccc3)cc2)cc1.[Br-]	8	8	16	> 128	8	128	> 128	> 128	> 128	> 128	753	47.1								
CCCCCCCCCCCCCC[N+](C)(C)CCCOc1ccc(C(=O)/C=C/c2ccccc2)cc1.[Br-]	8	64	32	32	32	16	128	128	> 128	> 128	39	9.8								

From ChEMBL document CHEMBL6092194, “Development of membrane-targeting chalcone derivatives as antibacterial agents against multidrug-resistant bacteria” (Eur J Med Chem, 2024)
